Data: US20230131899A1, “INHIBITORS OF MICROBIALLY INDUCED AMYLOID” (Axial Therapeutics, Inc., priority 2020, published 2023)
Read-outs that look alike come from different tables or passages of the source.

How the values were obtained:
[1] = molecular target: T1, E. coli CsgA (Escherichia coli, UniProt P28307); test: In vitro ThioflavinT assay of CsgA aggregation (CsgA ThT Assay); assay type: biochemical; conditions: for remaining activity at 25 µM: compound 25 μM; for remaining activity at 100 µM: compound 100 μM
T1 construct: made in house; host or cells: E. coli NEB 3016 slyD::kan, pET11d
T1 sequence (P28307 23-151): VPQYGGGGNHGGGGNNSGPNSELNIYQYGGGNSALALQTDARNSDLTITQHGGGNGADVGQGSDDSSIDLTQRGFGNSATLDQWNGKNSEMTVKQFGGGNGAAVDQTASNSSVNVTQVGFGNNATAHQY
Procedure, shortened: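 Purified C-terminal His-tagged CsgA, monomerised by desalting and 30-kDa filtration, at 2-20 μM with 20-40 μM ThT in 50 mM potassium phosphate pH 7.3, 1% DMSO, compounds 3.125-200 uM; room temperature, fluorescence (ex 438/em 495 nm) read every 15 min. Background-subtracted signal expressed as percent inhibition versus vehicle at 6-6.5 or 8-9 h, or as percent control AUC.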

[2] = tested on: CsgA gene expression (csgBAC promoter-GFP reporter) in E. coli UTI89; test: In vitro live cell fluorescent reporter assay of CsgA transcription (Reporter Assay); assay type: cell-based; conditions: Escherichia coli
Procedure, shortened: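 Chromosomal single-copy csgBAC promoter–GFP reporter in E. coli UTI89, started at OD600 0.003 in YESCA broth with compound (0.14–100 μM, 1% DMSO), 20 h at 27 °C. GFP (ex 485/em 525 nm) background-subtracted and normalized to vehicle; IC50 and X[50] from curve fits. OD600 tracked growth effects.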

[3] = read-out: CsgA ThT Assay (2 μM CsgA) % Control Bmax 25 μM, activity range, class symbol, CsgA 2 μM, white plates
[4] = read-out: CsgA ThT Assay (2 μM CsgA) % Control Bmax 25 μM, mean Bmax as percentage of DMSO control, CsgA 2 μM, white plates
[5] = read-out: CsgA ThT Assay (2 μM CsgA) % Control Bmax 100 μM, activity range, class symbol, CsgA 2 μM, white plates
[6] = read-out: CsgA ThT Assay (2 μM CsgA) % Control Bmax 100 μM, mean Bmax as percentage of DMSO control, CsgA 2 μM, white plates
[7] = read-out: Reporter Assay Abs IC50 (μM), median Abs IC50 in the CsgA reporter assay, N/A = maximum expression reduction is <50% of control
[8] = read-out: Reporter Assay Abs IC50, activity range, class symbol
[9] = read-out: CsgA ThT Assay (10 μM CsgA) % Control AUC at 1005 minutes, 25 μM (activity range), CsgA 10 μM, black plates, 1005 minutes, class symbol
[10] = read-out: CsgA ThT Assay (10 μM CsgA) % Control AUC at 1005 minutes, 25 μM, mean AUC as % of DMSO control, CsgA 10 μM, black plates, 1005 minutes
[11] = read-out: CsgA ThT Assay (10 μM CsgA) % Control AUC at 1005 minutes, 100 μM (activity range), CsgA 10 μM, black plates, 1005 minutes, class symbol
[12] = read-out: CsgA ThT Assay (10 μM CsgA) % Control AUC at 1005 minutes, 100 μM, mean AUC as % of DMSO control, CsgA 10 μM, black plates, 1005 minutes
[13] = read-out: Reporter Assay Abs IC50 (activity range), median Abs IC50 in the CsgA reporter assay, class symbol

| SMILES | remaining activity at 25 µM [1, 3] [%] | remaining activity at 25 µM [1, 4] [%] | remaining activity at 100 µM [1, 5] [%] | remaining activity at 100 µM [1, 6] [%] | IC50 [2, 7] [µM] | IC50 [2, 8] [µM] | remaining activity at 25 µM [1, 9] [%] | remaining activity at 25 µM [1, 10] [%] | remaining activity at 100 µM [1, 11] [%] | remaining activity at 100 µM [1, 12] [%] | IC50 [2, 13] [µM] |
| --- | --- | --- | --- | --- | --- | --- | --- | --- | --- | --- | --- |
| CN1CC(C(=O)O)n2c(c(-c3cccc(C(F)(F)F)c3)c(Cc3cccc4ccccc34)c(C(=O)N3CCCC3)c2=O)S1(=O)=O (centres unmarked) [Compound 186, 2-methyl-8-(naphthalen-1-ylmethyl)-6-oxo-7-(pyrrolidine-1-carbonyl)-9-(3-(trifluoromethyl)phenyl)-3,4-dihydro-2H,6H-pyrido[1,2-e] [1,2,5] thiadiazine-4-carboxylic acid 1,1-dioxide] | > 60 | 117 | > 60 | 72 | 4.7 | 4.6 to 10 |  |  |  |  |  |
| CCCN1CC(C(=O)O)n2c(c(-c3cccc(C(F)(F)F)c3)c(Cc3cccc4ccccc34)c(CC(C)C)c2=O)S1(=O)=O (centres unmarked) [Compound 139, 7-isobutyl-8-(naphthalen-1-ylmethyl)-6-oxo-2-propyl-9-(3-(trifluoromethyl)phenyl)-3,4-dihydro-2H,6H-pyrido[1,2-e][1,2,5]thiadiazine-4-carboxylic acid 1,1-dioxide] | 31 to 60 | 51 | 31 to 60 | 35 | 2.5 | 1.3 to 4.5 |  |  |  |  |  |
| O=C(O)C1CN(Cc2ccccc2)c2c(-c3cccc(C(F)(F)F)c3)c(Cc3cccc4cnccc34)c(Cl)c(=O)n21 (centres unmarked) [Compound 212, 1-benzyl-6-chloro-7-(isoquinolin-5-ylmethyl)-5-oxo-8-(3-(trifluoromethyl)phenyl)-1,2,3,5-tetrahydroimidazo[1,2-a]pyridine-3-carboxylic acid] | > 60 | 64 | 31 to 60 | 56 | 13 | > 10 |  |  |  |  |  |
| O=C(O)C1CN(Cc2ccccc2)c2c(-c3cccc(C(F)(F)F)c3)c(Cc3cccc4ccncc34)c(Cl)c(=O)n21 (centres unmarked) [Compound 205, 1-benzyl-6-chloro-7-(isoquinolin-8-ylmethyl)-5-oxo-8-(3-(trifluoromethyl)phenyl)-1,2,3,5-tetrahydroimidazo[1,2-a]pyridine-3-carboxylic acid] | > 60 | 69 | 31 to 60 | 44 | 22.4 | > 10 |  |  |  |  |  |
| Nc1c(Cc2cccc3ccccc23)c(-c2cccc(C(F)(F)F)c2)c2n(c1=O)C(C(=O)O)CN(CCCO)S2(=O)=O (centres unmarked) [Compound 097, 7-amino-2-(3-hydroxypropyl)-8-(naphthalen-1-ylmethyl)-6-oxo-9-(3-(trifluoromethyl)phenyl)-3,4-dihydro-2H,6H-pyrido[1,2-e][1,2,5]thiadiazine-4-carboxylic acid 1,1-dioxide] |  |  |  |  | 18.4 |  | > 60 | 63 | 31 to 60 | 41 | > 10 |
| O=C(O)C1CN(Cc2ccccc2)c2c(-c3cccc(C(F)(F)F)c3)c(Cc3cccc4cccnc34)c(Cl)c(=O)n21 (centres unmarked) [Compound 213, 1-benzyl-6-chloro-5-oxo-7-(quinolin-8-ylmethyl)-8-(3-(trifluoromethyl)phenyl)-1,2,3,5-tetrahydroimidazo[1,2-a]pyridine-3-carboxylic acid] | > 60 | 72 | 31 to 60 | 44 | 9.1 | 4.6 to 10 |  |  |  |  |  |
| CCN1CC(C(=O)O)n2c(c(-c3cccc(C(F)(F)F)c3)c(Cc3cccc4ccccc34)cc2=O)S1(=O)=O (racemic) [Compound 015, 2-ethyl-8-(naphthalen-1-ylmethyl)-6-oxo-9-(3-(trifluoromethyl)phenyl)-3,4-dihydro-2H,6H-pyrido[1,2-e][1,2,5]thiadiazine-4-carboxylic acid 1,1-dioxide] |  |  |  |  | 8 |  | 11 to 31 | 28 | 11 to 31 | 27 | 4.6 to 10 |
| CN(C)Cc1c(Cc2cccc3ccccc23)c(-c2cccc(C(F)(F)F)c2)c2n(c1=O)C(C(=O)O)CN2Cc1ccccc1 (centres unmarked) [Compound 204, 1-benzyl-6-((dimethylamino)methyl)-7-(naphthalen-1-ylmethyl)-5-oxo-8-(3-(trifluoromethyl)phenyl)-1,2,3,5-tetrahydroimidazo[1,2-a]pyridine-3-carboxylic acid] |  |  | > 60 | 71 | 1.9 | 1.3 to 4.5 |  |  |  |  |  |
| CCc1c(Cc2cccc3ccccc23)c(-c2cccc(C(F)(F)F)c2)c2n(c1=O)C(C(=O)O)CN(CCCO)S2(=O)=O (centres unmarked) [Compound 112, 7-ethyl-2-(3-hydroxypropyl)-8-(naphthalen-1-ylmethyl)-6-oxo-9-(3-(trifluoromethyl)phenyl)-3,4-dihydro-2H,6H-pyrido[1,2-e][1,2,5]thiadiazine-4-carboxylic acid 1,1-dioxide] |  |  |  |  | 9 |  | 31 to 60 | 35 | 11 to 31 | 20 | 4.6 to 10 |
| O=c1cc(Cc2cccc3ccccc23)c(-c2cccc(C(F)(F)F)c2)c2n1C(CO)CS2 (centres unmarked) [Compound 118, 3-(hydroxymethyl)-7-(naphthalen-1-ylmethyl)-8-(3-(trifluoromethyl)phenyl)-2,3-dihydro-5H-thiazolo[3,2-a]pyridin-5-one] |  |  |  |  | 3.9 |  | > 60 | 92 | > 60 | 76 | 1.3 to 4.5 |
| CCc1c(Cc2cccc3ccccc23)c(-c2cccc(C(F)(F)F)c2)c2n(c1=O)C(C(=O)O)CN2C (centres unmarked) [Compound 136, 6-ethyl-1-methyl-7-(naphthalen-1-ylmethyl)-5-oxo-8-(3-(trifluoromethyl)phenyl)-1,2,3,5-tetrahydroimidazo[1,2-a]pyridine-3-carboxylic acid] | > 60 | 77 | 11 to 31 | 27 | 3.5 | 1.3 to 4.5 |  |  |  |  |  |
| CCN1CC(C(=O)O)n2c(c(-c3cccc(C(F)(F)F)c3)c(Cc3cccc4ccccc34)c(N)c2=O)S1(=O)=O (centres unmarked) [Compound 092, 7-amino-2-ethyl-8-(naphthalen-1-ylmethyl)-6-oxo-9-(3-(trifluoromethyl)phenyl)-3,4-dihydro-2H,6H-pyrido[1,2-e][1,2,5]thiadiazine-4-carboxylic acid 1,1-dioxide] |  |  |  |  | 18.8 |  | > 60 | 64 | 31 to 60 | 52 | > 10 |
| CN1CC(C(=O)O)n2c(c(-c3cccc(C(F)(F)F)c3)c(Cc3cccc4ccccc34)c(N3CCOCC3)c2=O)S1(=O)=O (centres unmarked) [Compound 079, 2-methyl-7-morpholino-8-(naphthalen-1-ylmethyl)-6-oxo-9-(3-(trifluoromethyl)phenyl)-3,4-dihydro-2H,6H-pyrido[1,2-e][1,2,5]thiadiazine-4-carboxylic acid 1,1-dioxide] |  |  |  |  | 10.7 |  | 31 to 60 | 40 | 11 to 31 | 14 | > 10 |
| Cn1c(=O)c2c(ncn2CCCCCCN2CC(C(=O)O)n3c(c(-c4cccc(C(F)(F)F)c4)c(Cc4cccc5ccccc45)cc3=O)S2(=O)=O)n(C)c1=O (centres unmarked) [Compound 035, 2-(6-(1,3-dimethyl-2,6-dioxo-1,2,3,6-tetrahydro-7H-purin-7-yl)hexyl)-8-(naphthalen-1-ylmethyl)-6-oxo-9-(3-(trifluoromethyl)phenyl)-3,4-dihydro-2H,6H-pyrido[1,2-e][1,2,5]thiadiazine-4-carboxylic acid 1,1-dioxide] |  |  |  |  | 1.5 |  | > 60 | 65 |  |  | 1.3 to 4.5 |
